Results published in patent US20260144769A1, “4-PHENYLBUTYRATE RESTORED GABA UPTAKE AND REDUCED SEIZURES IN SLC6A1 VARIANT-MEDIATED DISORDERS” (Vanderbilt University, priority 2022, published 2026).

Experiments:
[1] = cited from earlier work
GAT-1 L460R = GAT-1 L460R (Rattus norvegicus, UniProt P23978, L460R); test: 3H GABA uptake, corrected iPSC astrocytes transfected with GAT-1^YFP cDNA; format: cell-based; parameters: The coding region of rGAT-1 was inserted into pEYFP-C1 (Clontech, Palo Alto, CA); expressed in transfected cells; host or cells: human astrocytes differentiated from CRISPR-corrected patient iPSCs; conditions: 2 mM PBA, 24 hrs
Description: (§1) Live images of human neural progenitor cells (NPCs), astrocytes and GABAergic inhibitory neurons differentiated from the human induced pluripotent stem cells (iPSCs) on the day of experiment. […] The DMSO treated corrected or patient cells was taken as 1. […] GABA flux was measured after 30 min transport at room temperature. The influx of GABA, expressed in pmol/μg protein/min, was averaged from duplicates for each condition and for each transfection. The average counting was DMSO treated condition taken as 1. In FIG. 5B, FIG. 5D and FIG. 5F, 966 stands for CI-966 (50 μM) and 711 stands for NNC-711 (35 μM) that was applied 30 min to the astrocytes transfected with the wildtype GAT-1^YFP before preincubation and removed during preincubation. In FIGS. 5B and D, ***p<0.001 vs. corrected DMSO treated. § § <0.01, § § § p<0.001 vs. patient DMSO treated. […] In FIGS. 5B-E, n=4-8 batches of cells. In FIG. 5F, n=4-5 different transfections). Unpaired t test was used for FIG. 5C and FIG. 5E. […] Values were expressed as mean±S.E.M.). […]
(§2) Briefly, cells were cultured in […] dishes for 3 days before the GABA uptake experiment in DMEM with 10% fetal bovine serum and 1% penicillin/streptomycin. […] Glacial acetic acid was added, and lysates were then determined on a liquid scintillator with QuantaSmart. […]

GAT-1 E16X = GAT-1 E16X (Rattus norvegicus, UniProt P23978); test: as above; format: cell-based; parameters: The coding region of rGAT-1 was inserted into pEYFP-C1 (Clontech, Palo Alto, CA); expressed in transfected cells; host or cells: human astrocytes differentiated from CRISPR-corrected patient iPSCs; conditions: 2 mM PBA, 24 hrs
Description: as §1, §2

[2] = test system: GAT-1 in patient astrocytes; test: 3H GABA uptake, patient iPSC derived astrocytes; format: cell-based, human; conditions: PBA 2 mM
Description: as §1, §2

GABA uptake normalized to its DMSO treated (GAT-1 L460R): 1.18±0.045 | GABA uptake normalized to its DMSO treated (GAT-1 E16X): 1.182±0.025
Structure (SMILES): O=C(O)CCCc1ccccc1 [PBA, 4-phenylbutyric acid]
oral bioavailability [1]: orally bioavailable | GABA uptake normalized to its DMSO treated ([2]; 24 hrs): 1.387±0.08 | GABA uptake of the patient cells as % of the corrected cells ([2]; 24 hrs (57% with DMSO)): 81%
